This is an account of results in patent US20110166121A1 (LG LIFE SCIENCES LTD., priority 2008, published 2011).

Structures are written as SMILES.

One test has as its target T1, Human P2Y12 receptor (Homo sapiens, UniProt Q9H244).
T1 construct: expressed in transfected cells; host or cells: HEK cells
Nature of the test: Human P2Y12 receptor cell membrane binding assay with [3H] 2-Mes-ADP. The conditions noted are these: 1 nM [3H] 2-Mes-ADP, membranes of HEK cells expressing P2Y12 receptor; read-out: Binding activity (IC50). The method in brief:
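Competition binding used 1 nM [3H]2-MeS-ADP on P2Y12-expressing HEK cell membranes for 1 h at room temperature, followed by filtration and scintillation counting.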

For test [1], the system named is Human platelet aggregation caused by ADP. Nature of the test: Inhibition of ADP-induced platelet aggregation (Mimic-human PRP). Type of test: cell-based. The conditions noted are these: 20 μM ADP, human platelet concentrate diluted with PPP, absorption at 595 nm. The method in brief: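 Ki came from non-linear sigmoidal fits of inhibition, measured as the 3-min rise in absorbance at 595 nm after 20 μM ADP, relative to 0/20 μM ADP controls. Platelets (3–4×10^8/mL in PPP-diluted human PRP) were exposed to 0.01–30 μM compound for 20 min at room temperature beforehand.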

T1 sequence (Q9H244 whole entry): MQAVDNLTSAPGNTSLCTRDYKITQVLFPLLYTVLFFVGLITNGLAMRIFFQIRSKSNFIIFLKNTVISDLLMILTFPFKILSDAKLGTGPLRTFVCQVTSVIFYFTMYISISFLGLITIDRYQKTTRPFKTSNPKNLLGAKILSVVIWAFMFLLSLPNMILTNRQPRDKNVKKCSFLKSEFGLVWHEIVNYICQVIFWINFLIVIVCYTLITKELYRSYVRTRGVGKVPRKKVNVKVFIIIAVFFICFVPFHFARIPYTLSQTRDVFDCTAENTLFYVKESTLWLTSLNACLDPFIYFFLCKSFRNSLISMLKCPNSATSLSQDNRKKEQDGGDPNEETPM

Take `CCCc1cc2c(N3CCn4c(nnc4C(F)(F)F)C3)nc(N3CCN(c4ccc(O)cc4)CC3)nc2s1` [Example 1-38, 4-{4-[6-Propyl-4-(3-trifluoromethyl-5,6-dihydro-8H-[1,2,4]triazolo[4,3-a]pyrazin-7-yl)-thieno[2,3-d]pyrimidin-2-yl]-piperazin-1-yl}-phenol]: at Human P2Y12 receptor, the IC50 stood at 100 nM. The same compound yielded an inhibition constant (Ki) in test [1] of 180 nM.

Regarding `CCCc1cc2c(N3CCn4c(nnc4C(F)(F)F)C3)nc(N3CCN(c4cccc(O)c4)CC3)nc2s1` [Example 1-39, 3-{4-[6-Propyl-4-(3-trifluoromethyl-5,6-dihydro-8H-[1,2,4]triazolo[4,3-a]pyrazin-7-yl)-thieno[2,3-d]pyrimidin-2-yl]-piperazin-1-yl}-phenol], at Human P2Y12 receptor, the IC50 was 140 nM. Also, affinity in test [1] was put at a Ki of 550 nM.

For the compound `CCCc1cc2c(N3CCn4c(nnc4C(F)(F)F)C3)nc(N3CCN(C4CCCC4)CC3)nc2s1` [Example 1-40, 7-[2-(4-Cyclopentyl-piperazin-1-yl)-6-propyl-thieno[2,3-d]pyrimidin-4-yl]-3-trifluoromethyl-5,6,7,8-tetrahydro-[1,2,4]triazolo[4,3-a]pyrazine], the IC50 at Human P2Y12 receptor stood at 200 nM. Moreover, in test [1], the inhibition constant (Ki) worked out at 175 nM.

In the case of `CCCc1cc2c(N3CCn4c(nnc4C(F)(F)F)C3)nc(N3CCN(CC4CCCC4)CC3)nc2s1` [Example 1-41, 7-[2-(4-Cyclopentylmethyl-piperazin-1-yl)-6-propyl-thieno[2,3-d]pyrimidin-4-yl]-3-trifluoromethyl-5,6,7,8-tetrahydro-[1,2,4]triazolo[4,3-a]pyrazine], the 50% inhibitory concentration (IC50) at Human P2Y12 receptor worked out at 536 nM. The compound also gave an inhibition constant (Ki) in test [1] of 1600 nM.

On to `CCCc1cc2c(N3CCn4c(nnc4C(F)(F)F)C3)nc(N3CCN(CC4CCCCC4)CC3)nc2s1` [Example 1-42, 7-[2-(4-Cyclohexylmethyl-piperazin-1-yl)-6-propyl-thieno[2,3-d]pyrimidin-4-yl]-3-trifluoromethyl-5,6,7,8-tetrahydro-[1,2,4]triazolo[4,3-a]pyrazine], for which the IC50 at Human P2Y12 receptor was 1170 nM. In test [1], this compound displayed a Ki of 7300 nM.

Consider `CCCc1cc2c(N3CCn4c(nnc4C(F)(F)F)C3)nc(NCCC(=O)OCC)nc2s1` [Example 1-43, 3-[6-Propyl-4-(3-trifluoromethyl-5,6-dihydro-8H-[1,2,4]triazolo[4,3-a]pyrazin-7-yl)-thieno[2,3-d]pyrimidin-2-ylamino]-propionic acid ethyl ester], for which, at Human P2Y12 receptor, the IC50 worked out at 134 nM. In addition, the affinity in test [1] corresponds to a Ki of 670 nM.

Regarding `CCCc1cc2c(N3CCn4c(nnc4C(F)(F)F)C3)nc(NCCC(=O)O)nc2s1` [Example 1-44, 3-[6-Propyl-4-(3-trifluoromethyl-5,6-dihydro-8H-[1,2,4]triazolo[4,3-a]pyrazin-7-yl)-thieno[2,3-d]pyrimidin-2-ylamino]-propionic acid], at Human P2Y12 receptor, the IC50 is 59 nM. In test [1], this compound came in with an inhibitory constant (Ki) of 260 nM.

In the case of `CCCc1cc2c(N3CCn4c(nnc4C(F)(F)F)C3)nc(N3CCCC(C(=O)OCC)C3)nc2s1` (stereo not shown) [Example 1-45, 1-[6-Propyl-4-(3-trifluoromethyl-5,6-dihydro-8H-[1,2,4]triazolo[4,3-a]pyrazin-7-yl)-thieno[2,3-d]pyrimidin-2-yl]-piperidine-3-carboxylic acid ethyl ester], the IC50 at Human P2Y12 receptor amounted to 340 nM. Also, the Ki in test [1] came to 1000 nM.

Regarding `CCCc1cc2c(N3CCn4c(nnc4C(F)(F)F)C3)nc(N3CCCC(C(=O)O)C3)nc2s1` (stereo not shown) [Example 1-46, 1-[6-Propyl-4-(3-trifluoromethyl-5,6-dihydro-8H-[1,2,4]triazolo[4,3-a]pyrazin-7-yl)-thieno[2,3-d]pyrimidin-2-yl]-piperidine-3-carboxylic acid], the 50% inhibitory concentration (IC50) on Human P2Y12 receptor was determined as 21 nM. Affinity in test [1] was put at a Ki of 58 nM.

With `CCCc1cc2c(N3CCn4c(nnc4C(F)(F)F)C3)nc(N3CCCC(C(=O)OC(C)C)C3)nc2s1` (stereo not shown) [Example 1-47, 1-[6-Propyl-4-(3-trifluoromethyl-5,6-dihydro-8H-[1,2,4]triazolo[4,3-a]pyrazin-7-yl)-thieno[2,3-d]pyrimidin-2-yl]-piperidine-3-carboxylic acid isopropyl ester], the IC50 on Human P2Y12 receptor was determined as 280 nM. Also, in test [1], affinity was put at a Ki of 1900 nM.

Consider `CCCc1cc2c(N3CCn4c(nnc4C(F)(F)F)C3)nc(N3CCCC(C(=O)OCOC(=O)C(C)(C)C)C3)nc2s1` (stereo not shown) [Example 1-48, 1-[6-Propyl-4-(3-trifluoromethyl-5,6-dihydro-8H-[1,2,4]triazolo[4,3-a]pyrazin-7-yl)-thieno[2,3-d]pyrimidin-2-yl]-piperidine-3-carboxylic acid 2,2-dimethyl-propionyloxymethyl ester], for which the 50% inhibitory concentration (IC50) on Human P2Y12 receptor amounted to 400 nM. In test [1], the Ki was 1300 nM.

Turning to `CCCc1cc2c(N3CCn4c(nnc4C(F)(F)F)C3)nc(N3CCC[C@H]3C(=O)OC)nc2s1` [Example 1-49, (S)-1-[6-Propyl-4-(3-trifluoromethyl-5,6-dihydro-8H-[1,2,4]triazolo[4,3-a]pyrazin-7-yl)-thieno[2,3-d]pyrimidin-2-yl]-pyrrolidine-2-carboxylic acid methyl ester], on Human P2Y12 receptor, the half-maximal inhibitory concentration (IC50) stood at 98 nM. Also, the Ki in test [1] worked out at 230 nM.

For `CCCc1cc2c(N3CCn4c(nnc4C(F)(F)F)C3)nc(N3CCC[C@H]3C(=O)O)nc2s1` [Example 1-50, (S)-1-[6-Propyl-4-(3-trifluoromethyl-5,6-dihydro-8H-[1,2,4]triazolo[4,3-a]pyrazin-7-yl)-thieno[2,3-d]pyrimidin-2-yl]-pyrrolidine-2-carboxylic acid], the IC50 on Human P2Y12 receptor was determined as 110 nM. Moreover, the inhibitory constant (Ki) in test [1] was determined as 40 nM.

On to `CCCc1cc2c(N3CCn4c(nnc4C(F)(F)F)C3)nc(N3CCC[C@H]3C(=O)OC(C)C)nc2s1` [Example 1-51, (S)-1-[6-Propyl-4-(3-trifluoromethyl-5,6-dihydro-8H-[1,2,4]triazolo[4,3-a]pyrazin-7-yl)-thieno[2,3-d]pyrimidin-2-yl]-pyrrolidine-2-carboxylic acid isopropyl ester], for which, on Human P2Y12 receptor, the IC50 was 220 nM. In addition, in test [1], the Ki was found to be 800 nM.

With `CCCc1cc2c(N3CCn4c(nnc4C(F)(F)F)C3)nc(N3CCC[C@H]3C(=O)OCOC(=O)C(C)(C)C)nc2s1` [Example 1-52, (S)-1-[6-Propyl-4-(3-trifluoromethyl-5,6-dihydro-8H-[1,2,4]triazolo[4,3-a]pyrazin-7-yl)-thieno[2,3-d]pyrimidin-2-yl]-pyrrolidine-2-carboxylic acid 2,2-dimethyl-propionyloxymethyl ester], the IC50 at Human P2Y12 receptor was 1030 nM. In test [1], this compound yielded an inhibition constant Ki above 4000 nM.

On to `CCCc1cc2c(N3CCn4c(nnc4C(F)(F)F)C3)nc(N3CCC[C@@H]3C(=O)O)nc2s1` [Example 1-54, (R)-1-[6-Propyl-4-(3-trifluoromethyl-5,6-dihydro-8H-[1,2,4]triazolo[4,3-a]pyrazin-7-yl)-thieno[2,3-d]pyrimidin-2-yl]-pyrrolidine-2-carboxylic acid], for which the half-maximal inhibitory concentration (IC50) at Human P2Y12 receptor is 143 nM. The same compound gave an inhibition constant Ki in test [1] of 130 nM.

For `CCCc1cc2c(N3CCn4c(nnc4C(F)(F)F)C3)nc(N3CCC(C#N)C3)nc2s1` (stereo not shown) [Example 1-55, 1-[6-Propyl-4-(3-trifluoromethyl-5,6-dihydro-8H-[1,2,4]triazolo[4,3-a]pyrazin-7-yl)-thieno[2,3-d]pyrimidin-2-yl]-pyrrolidine-3-carbonitrile], the IC50 on Human P2Y12 receptor came to 60 nM. Moreover, in test [1], the inhibitory constant (Ki) came to 27 nM.

One may read the IC50 as the concentration that gives 50% inhibition. Usually Ki stands for the equilibrium dissociation constant of an inhibitor or competing ligand from its target. Higher therefore signals a looser hold on the target.
